Experimental data from ChEMBL document CHEMBL1201861, “Genomics of Drug Sensitity in Cancer screening data, Wellcome Trust Sanger Institute”.
pIC50: −log10 of the molar value.

Legend:
Test in all cases: cells
[1] = system: COLO-741; assay type: functional, cell-based, Homo sapiens; settings: Homo sapiens, COLO-741
Description: SANGER: Inhibition of human COLO-741 cell growth in a cell viability assay.

[2] = system: D-263MG; assay type: functional, cell-based, Homo sapiens; settings: Homo sapiens, D-263MG
Description: SANGER: Inhibition of human D-263MG cell growth in a cell viability assay.

[3] = system: D-392MG; assay type: functional, cell-based, Homo sapiens; settings: Homo sapiens, D-392MG
[4] = system: DEL; assay type: functional, cell-based; settings: Homo sapiens;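 further: growth inhibition of the human DEL cell line, read out with a cell viability assay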
Description: SANGER: Inhibition of human DEL cell growth in a cell viability assay.

[5] = system: DOK; assay type: functional, cell-based, Homo sapiens; settings: Homo sapiens, DOK;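 further: cell viability assay read-out, values reflect inhibition of cell growth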
Description: SANGER: Inhibition of human DOK cell growth in a cell viability assay.

[6] = system: DU-145; assay type: functional, cell-based, Homo sapiens; settings: Homo sapiens, DU-145
Description: SANGER: Inhibition of human DU-145 cell growth in a cell viability assay.

[7] = system: EC-GI-10; assay type: functional, cell-based, Homo sapiens; settings: Homo sapiens, EC-GI-10
Description: SANGER: Inhibition of human EC-GI-10 cell growth in a cell viability assay.

[8] = system: EKVX; assay type: functional, cell-based, Homo sapiens; settings: Homo sapiens, EKVX;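 further: growth inhibition of human EKVX cells, read out with a cell viability assay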
Description: SANGER: Inhibition of human EKVX cell growth in a cell viability assay.

[9] = system: ESS-1; assay type: functional, cell-based, Homo sapiens; settings: Homo sapiens, ESS-1;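 further: growth inhibition of human ESS-1 cells, read out by a cell viability assay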
Description: SANGER: Inhibition of human ESS-1 cell growth in a cell viability assay.

[10] = system: GI-1; assay type: functional, cell-based, Homo sapiens; settings: Homo sapiens, GI-1;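 further: growth inhibition of human GI-1 cells, measured with a cell viability readout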
Description: SANGER: Inhibition of human GI-1 cell growth in a cell viability assay.

[11] = system: HC-1; assay type: functional, cell-based; settings: Homo sapiens;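 further: growth inhibition of HC-1 cells measured by a cell viability assay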
Description: SANGER: Inhibition of human HC-1 cell growth in a cell viability assay.

[12] = system: HCC38; assay type: functional, cell-based, Homo sapiens; settings: Homo sapiens, HCC38;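 further: cell viability assay on the human HCC38 cell line, with IC50 marking the concentration that inhibits cell growth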
Description: SANGER: Inhibition of human HCC38 cell growth in a cell viability assay.

[13] = system: HCE-T; assay type: functional, cell-based, Homo sapiens; settings: Homo sapiens, HCE-T;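 further: cell viability assay read-out, reporting inhibition of HCE-T cell growth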
Description: SANGER: Inhibition of human HCE-T cell growth in a cell viability assay.

[14] = system: HD-MY-Z; assay type: functional, cell-based, Homo sapiens; settings: Homo sapiens, HD-MY-Z;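 further: growth inhibition of HD-MY-Z cells, read out with a cell viability assay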
Description: SANGER: Inhibition of human HD-MY-Z cell growth in a cell viability assay.

[15] = system: HO-1-N-1; assay type: functional, cell-based, Homo sapiens; settings: Homo sapiens, HO-1-N-1;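 further: growth inhibition of human HO-1-N-1 cells, read out with a cell viability assay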
Description: SANGER: Inhibition of human HO-1-N-1 cell growth in a cell viability assay.

[16] = system: Hs-578T; assay type: functional, cell-based, Homo sapiens; settings: Homo sapiens, Hs-578T
Description: SANGER: Inhibition of human Hs-578-T cell growth in a cell viability assay.

[17] = system: JVM-3; assay type: functional, cell-based; settings: Homo sapiens;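 further: growth inhibition of human JVM-3 cells, read out with a cell viability assay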
Description: SANGER: Inhibition of human JVM-3 cell growth in a cell viability assay.

[18] = system: KP-N-YS; assay type: functional, cell-based; settings: Homo sapiens;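 further: cell viability assay measuring inhibition of cell line growth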
Description: SANGER: Inhibition of human KP-N-YS cell growth in a cell viability assay.

[19] = system: MEL-HO; assay type: functional, cell-based, Homo sapiens; settings: Homo sapiens, MEL-HO
Description: SANGER: Inhibition of human MEL-HO cell growth in a cell viability assay.

[20] = system: MMAC-SF; assay type: functional, cell-based, Homo sapiens; settings: Homo sapiens, MMAC-SF;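 further: growth inhibition of human MMAC-SF cells, read out with a cell viability assay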
Description: SANGER: Inhibition of human MMAC-SF cell growth in a cell viability assay.

[21] = system: MN-60; assay type: functional, cell-based; settings: Homo sapiens;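 further: growth inhibition of the MN-60 cell line, determined with a cell viability assay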
Description: SANGER: Inhibition of human MN-60 cell growth in a cell viability assay.

[22] = system: MOLT-4; assay type: functional, cell-based; settings: Homo sapiens;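 further: growth inhibition of MOLT-4 cells, determined with a cell viability readout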
Description: SANGER: Inhibition of human MOLT-4 cell growth in a cell viability assay.

[23] = system: MS-1; assay type: functional, cell-based; settings: Homo sapiens;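 further: growth inhibition of MS-1 cells, read out by cell viability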
Description: SANGER: Inhibition of human MS-1 cell growth in a cell viability assay.

[24] = system: Mo; assay type: functional, cell-based; settings: Homo sapiens
Description: SANGER: Inhibition of human Mo-T cell growth in a cell viability assay.

[25] = system: NB12; assay type: functional, cell-based, Homo sapiens; settings: Homo sapiens, NB12;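 further: growth inhibition of human NB12 cells, read out by a cell viability assay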
Description: SANGER: Inhibition of human NB12 cell growth in a cell viability assay.

[26] = system: NCI-H1299; assay type: functional, cell-based, Homo sapiens; settings: Homo sapiens, NCI-H1299;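 further: growth inhibition of human NCI-H1299 cells, read out by a cell viability assay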
Description: SANGER: Inhibition of human NCI-H1299 cell growth in a cell viability assay.

[27] = system: NCI-H1693; assay type: functional, cell-based, Homo sapiens; settings: Homo sapiens, NCI-H1693;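 further: growth inhibition of the human cell line, read out with a cell viability assay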
Description: SANGER: Inhibition of human NCI-H1693 cell growth in a cell viability assay.

[28] = system: NCI-H446; assay type: functional, cell-based; settings: Homo sapiens;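 further: growth inhibition of NCI-H446 cells determined by a cell viability assay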
Description: SANGER: Inhibition of human NCI-H446 cell growth in a cell viability assay.

[29] = system: NCI-H69; assay type: functional, cell-based; settings: Homo sapiens;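 further: growth inhibition of the cell line, read out with a cell viability assay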
Description: SANGER: Inhibition of human NCI-H69 cell growth in a cell viability assay.

[30] = system: NCI-H727; assay type: functional, cell-based, Homo sapiens; settings: Homo sapiens, NCI-H727;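 further: growth inhibition of human NCI-H727 cells, read out with a cell viability assay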
Description: SANGER: Inhibition of human NCI-H727 cell growth in a cell viability assay.

[31] = system: NH-12; assay type: functional, cell-based, Homo sapiens; settings: Homo sapiens, NH-12;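 further: growth inhibition of NH-12 cells, read out with a cell viability assay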
Description: SANGER: Inhibition of human NH-12 cell growth in a cell viability assay.

[32] = system: OCI-AML2; assay type: functional, cell-based; settings: Homo sapiens;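 further: growth inhibition of OCI-AML2 cells, read out with a cell viability assay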
Description: SANGER: Inhibition of human OCI-AML2 cell growth in a cell viability assay.

[33] = system: OE19; assay type: functional, cell-based, Homo sapiens; settings: Homo sapiens, OE19;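 further: growth inhibition of OE19 cells, measured through a cell viability read-out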
Description: SANGER: Inhibition of human OE19 cell growth in a cell viability assay.

[34] = system: P30-OHK; assay type: functional, cell-based; settings: Homo sapiens;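 further: growth inhibition of the P30-OHK cell line, read out with a cell viability assay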
Description: SANGER: Inhibition of human P30-OHK cell growth in a cell viability assay.

[35] = system: RO82-W-1; assay type: functional, cell-based, Homo sapiens; settings: Homo sapiens, RO82-W-1;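 further: growth inhibition of human RO82-W-1 cells, measured with a cell viability assay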
Description: SANGER: Inhibition of human RO82-W-1 cell growth in a cell viability assay.

[36] = system: SHP77; assay type: functional, cell-based, Homo sapiens, SHP-77; settings: Homo sapiens, SHP77;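 further: growth inhibition of human SHP-77 cells measured by a cell viability assay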
Description: SANGER: Inhibition of human SHP-77 cell growth in a cell viability assay.

[37] = system: SK-LU-1; assay type: functional, cell-based, Homo sapiens; settings: Homo sapiens, SK-LU-1;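 further: cell viability assay measuring growth inhibition of human SK-LU-1 cells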
Description: SANGER: Inhibition of human SK-LU-1 cell growth in a cell viability assay.

[38] = system: SK-N-DZ; assay type: functional, cell-based, Homo sapiens; settings: Homo sapiens, SK-N-DZ;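 further: growth inhibition of the cancer cell line, read out through a viability assay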
Description: SANGER: Inhibition of human SK-N-DZ cell growth in a cell viability assay.

[39] = system: SW48; assay type: functional, cell-based, Homo sapiens; settings: Homo sapiens, SW48;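 further: growth inhibition of SW48 cells, read out with a cell viability assay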
Description: SANGER: Inhibition of human SW48 cell growth in a cell viability assay.

[40] = system: SW872; assay type: functional, cell-based, Homo sapiens; settings: Homo sapiens, SW872;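 further: growth inhibition of SW872 cells, read out by a viability assay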
Description: SANGER: Inhibition of human SW872 cell growth in a cell viability assay.

[41] = system: T47D; assay type: functional, cell-based, Homo sapiens; settings: Homo sapiens, T47D;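 further: growth inhibition of human T47D cells, measured with a cell viability assay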
Description: SANGER: Inhibition of human T47D cell growth in a cell viability assay.

[42] = system: 697; assay type: functional, cell-based; settings: Homo sapiens
Description: SANGER: Inhibition of human 697 cell growth in a cell viability assay.

[43] = system: A204; assay type: functional, cell-based, Homo sapiens; settings: Homo sapiens, A204;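 further: growth inhibition of human A204 cells, read out with a cell viability assay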
Description: SANGER: Inhibition of human A204 cell growth in a cell viability assay.

[44] = system: ACN; assay type: functional, cell-based, Homo sapiens; settings: Homo sapiens, ACN;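 further: growth inhibition of the human ACN cell line, read out via cell viability testing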
Description: SANGER: Inhibition of human ACN cell growth in a cell viability assay.

[45] = system: BCPAP; assay type: functional, cell-based, Homo sapiens; settings: Homo sapiens, BCPAP;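 further: growth inhibition of BCPAP cells, read out in a cell viability assay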
Description: SANGER: Inhibition of human BCPAP cell growth in a cell viability assay.

[46] = system: BPH-1; assay type: functional, cell-based, Homo sapiens; settings: Homo sapiens, BPH-1;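 further: cell viability assay measuring growth inhibition of human BPH-1 cells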
Description: SANGER: Inhibition of human BPH-1 cell growth in a cell viability assay.

[47] = system: CAL-33; assay type: functional, cell-based, Homo sapiens; settings: Homo sapiens, CAL-33;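 further: growth inhibition of CAL-33 cells, read out with a cell viability assay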
Description: SANGER: Inhibition of human CAL-33 cell growth in a cell viability assay.

[48] = system: CAL-62; assay type: functional, cell-based, Homo sapiens; settings: Homo sapiens, CAL-62;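 further: growth inhibition of CAL-62 cells, read out with a cell viability assay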
Description: SANGER: Inhibition of human CAL-62 cell growth in a cell viability assay.

[49] = system: UO-31; assay type: functional, cell-based; settings: Homo sapiens;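 further: cell viability assay measuring inhibition of cell growth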
Description: SANGER: Inhibition of human U031 cell growth in a cell viability assay.

[50] = system: UMUC3; assay type: functional, cell-based, Homo sapiens; settings: Homo sapiens, UMUC3;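 further: growth inhibition of human UM-UC-3 cells, read out with a cell viability assay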
Description: SANGER: Inhibition of human UM-UC-3 cell growth in a cell viability assay.

[51] = system: CGTH-W-1; assay type: functional, cell-based, Homo sapiens; settings: Homo sapiens, CGTH-W-1;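 further: growth inhibition of human CGTH-W-1 cells measured by cell viability assay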
Description: SANGER: Inhibition of human CGTH-W-1 cell growth in a cell viability assay.

[52] = system: COLO-684; assay type: functional, cell-based; settings: Homo sapiens
Description: SANGER: Inhibition of human COLO-684 cell growth in a cell viability assay.

[53] = system: CP66-MEL; assay type: functional, cell-based, Homo sapiens; settings: Homo sapiens, CP66-MEL;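 further: growth inhibition of CP66-MEL cells determined in a cell viability assay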
Description: SANGER: Inhibition of human CP66-MEL cell growth in a cell viability assay.

Question: With `O=C(c1cc(Cc2n[nH]c(=O)c3ccccc23)ccc1F)N1CCN(C(=O)C2CC2)CC1` [OLAPARIB] as the compound, how does the pIC50 [1] read?
Answer: < 5.30

Question: And the pIC50 [2]?
Answer: < 5.30

Question: And the pIC50 [3]?
Answer: < 5.30

Question: And the pIC50 [4]?
Answer: < 5.30

Question: What about the pIC50 [5] of the same compound?
Answer: < 5.30

Question: And the pIC50 [6]?
Answer: < 5.30

Question: What about the pIC50 [7] of the same compound?
Answer: < 5.30

Question: And the pIC50 [8]?
Answer: < 5.30

Question: And the pIC50 [9]?
Answer: < 5.30

Question: What about the pIC50 [10] of the same compound?
Answer: < 5.30

Question: What about the pIC50 [11] of the same compound?
Answer: < 5.30

Question: What about the pIC50 [12] of the same compound?
Answer: < 5.30

Question: What about the pIC50 [13] of the same compound?
Answer: < 5.30

Question: And the pIC50 [14]?
Answer: < 5.30

Question: What about the pIC50 [15] of the same compound?
Answer: < 5.30

Question: And the pIC50 [16]?
Answer: < 5.30

Question: What about the pIC50 [17] of the same compound?
Answer: < 5.30

Question: And the pIC50 [18]?
Answer: < 5.30

Question: And the pIC50 [19]?
Answer: < 5.30

Question: And the pIC50 [20]?
Answer: < 5.30

Question: What about the pIC50 [21] of the same compound?
Answer: < 5.30

Question: And the pIC50 [22]?
Answer: < 5.30

Question: What about the pIC50 [23] of the same compound?
Answer: < 5.30

Question: What about the pIC50 [24] of the same compound?
Answer: < 5.30

Question: And the pIC50 [25]?
Answer: < 5.30

Question: And the pIC50 [26]?
Answer: < 5.30

Question: And the pIC50 [27]?
Answer: < 5.30

Question: What about the pIC50 [28] of the same compound?
Answer: < 5.30

Question: And the pIC50 [29]?
Answer: < 5.30

Question: What about the pIC50 [30] of the same compound?
Answer: < 5.30

Question: And the pIC50 [31]?
Answer: < 5.30

Question: What about the pIC50 [32] of the same compound?
Answer: < 5.30

Question: And the pIC50 [33]?
Answer: < 5.30

Question: What about the pIC50 [34] of the same compound?
Answer: < 5.30

Question: What about the pIC50 [35] of the same compound?
Answer: < 5.30

Question: What about the pIC50 [36] of the same compound?
Answer: < 5.30

Question: And the pIC50 [37]?
Answer: < 5.30

Question: What about the pIC50 [38] of the same compound?
Answer: < 5.30

Question: And the pIC50 [39]?
Answer: < 5.30

Question: What about the pIC50 [40] of the same compound?
Answer: < 5.30

Question: What about the pIC50 [41] of the same compound?
Answer: < 5.30

Question: And the pIC50 [42]?
Answer: 5.55

Question: What about the pIC50 [43] of the same compound?
Answer: < 5.30

Question: What about the pIC50 [44] of the same compound?
Answer: < 5.30

Question: What about the pIC50 [45] of the same compound?
Answer: < 5.30

Question: What about the pIC50 [46] of the same compound?
Answer: < 5.30

Question: What about the pIC50 [47] of the same compound?
Answer: < 5.30

Question: What about the pIC50 [48] of the same compound?
Answer: < 5.30

Question: And the pIC50 [49]?
Answer: < 5.30

Question: And the pIC50 [50]?
Answer: < 5.30

Question: And the pIC50 [51]?
Answer: < 5.30

Question: What about the pIC50 [52] of the same compound?
Answer: 5.45

Question: What does the source list for `Cn1cc(C2=C(c3ccc(Cl)cc3Cl)C(=O)NC2=O)c2ccccc21` [SB-216763]?
Answer: pIC50 [1]: < 5.00; pIC50 [53]: < 5.00; pIC50 [2]: < 5.00; pIC50 [3]: < 5.00; pIC50 [4]: < 5.00; pIC50 [5]: < 5.00; pIC50 [6]: < 5.00; pIC50 [7]: < 5.00; pIC50 [8]: < 5.00; pIC50 [9]: 5.02; pIC50 [10]: < 5.00; pIC50 [11]: < 5.00; pIC50 [12]: < 5.00; pIC50 [13]: < 5.00; pIC50 [14]: < 5.00; pIC50 [15]: < 5.00; pIC50 [16]: < 5.00; pIC50 [17]: < 5.00; pIC50 [18]: < 5.00; pIC50 [19]: < 5.00; pIC50 [20]: < 5.00; pIC50 [21]: < 5.00; pIC50 [22]: < 5.00; pIC50 [23]: < 5.00; pIC50 [24]: < 5.00; pIC50 [25]: < 5.00; pIC50 [26]: < 5.00; pIC50 [27]: < 5.00; pIC50 [28]: < 5.00; pIC50 [30]: < 5.00; pIC50 [31]: < 5.00; pIC50 [32]: < 5.00; pIC50 [33]: < 5.00; pIC50 [34]: < 5.00; pIC50 [35]: < 5.00; pIC50 [36]: < 5.00; pIC50 [37]: < 5.00; pIC50 [38]: < 5.00; pIC50 [39]: < 5.00; pIC50 [40]: < 5.00; pIC50 [41]: < 5.00; pIC50 [42]: < 5.00; pIC50 [43]: < 5.00; pIC50 [44]: < 5.00; pIC50 [45]: < 5.00; pIC50 [46]: < 5.00; pIC50 [47]: < 5.00; pIC50 [48]: < 5.00; pIC50 [49]: < 5.00; pIC50 [50]: < 5.00; pIC50 [51]: < 5.00; pIC50 [52]: < 5.00
